Measurements: US9637502B2, “Crystal form of Cefathiamidine compound and preparation method therefor” (TIANJIN UNIVERSITY, priority 2014, dated 2017)

Legend:
[1] = Thermal stability tests (storage); type: physicochemical; settings: within 4 months at 30° C.
Experimental: 5 g of solid Cefathiamidine compound with a purity of 98% was added to 100 mL of ethanol at a temperature of 45° C., until being totally dissolved to form a solution, and then 300 mL of isopropanol as a solventing-out agent was dropwise added to the solution within 3 hours; followed by cooling the solution down to 0° C. at a rate of 0.2° C./min; continuing to stir for 3 hours.

[2] = Differential scanning calorimetry, decomposing exothermic peak; type: physicochemical; settings: 25˜200° C., 10° C./min, nitrogen 80 mL/min
Experimental: The novel crystalline form of Cefathiamidine compound provided in the present invention is determined by differential scanning calorimeter, and the differential scanning calorimetry thermogram comprises a melting endothermic peak at 169.6±1° C. and a decomposing exothermic peak at 172.2±1° C. as shown in FIG. 6. Test conditions are as follows: temperature range, 25˜200° C., temperature rising rate, 10° C./min, nitrogen protection: 80 mL/min.

[3] = prior-art crystalline forms; cited from earlier work
[4] = Toxicity test, LD50 in mice; settings: mouse, in vivo
Experimental: (§1) The novel crystalline form of Cefathiamidine compound of the present invention was tested by toxicity tests and in vitro antibacterial activity tests (taking the crystalline form of Cefathiamidine compound obtained in Example 1 for example).

[5] = Reproductive toxicity test; type: in vivo; settings: compared with prior art
Experimental: as §1

streptococcus pyogenes = assay: In vitro antibacterial activity test; type: cell-based; settings: against streptococcus pyogenes
Experimental: as §1
(§2) Thus, the antibacterial activity was better than that of any prior art, and was more suitable for clinical application.

streptococcus pneumonia = assay: In vitro antibacterial activity test; type: cell-based; settings: Streptococcus pneumoniae; against streptococcus pneumonia
Experimental: as §1, §2

another three bacterias = assay: In vitro antibacterial activity test; type: cell-based; settings: against another three bacterias
Experimental: as §1, §2

haemophilus influenza = assay: In vitro antibacterial activity test; type: cell-based; settings: against haemophilus influenza
Experimental: as §1, §2

enterococcus = assay: In vitro antibacterial activity test; type: cell-based; settings: against enterococcus
Experimental: as §1, §2

With `CC(=O)OCC1=C(C(=O)O)N2C(=O)[C@@H](NC(=O)CSC(=NC(C)C)NC(C)C)[C@H]2SC1` [Example 6] the “thermal stability (change on storage)” value [1] was “did not make any change” and the “thermal decomposing temperature (decomposing exothermic peak, DSC)” value (“thermal decomposing temperature” below) [2] was 171.8 °C.

With `CC(=O)OCC1=C(C(=O)O)N2C(=O)[C@@H](NC(=O)CSC(=NC(C)C)NC(C)C)[C@H]2SC1` the “thermal decomposing temperature” value [2] was 172.2±1 °C.

In the case of `CC(=O)OCC1=C(C(=O)O)N2C(=O)[C@@H](NC(=O)CSC(=NC(C)C)NC(C)C)[C@H]2SC1` [crystalline form prepared in CN1495187A], the “thermal cracking / decomposition temperature” value [3] is listed as no less than 154±1 °C.

In the case of `CC(=O)OCC1=C(C(=O)O)N2C(=O)[C@@H](NC(=O)CSC(=NC(C)C)NC(C)C)[C@H]2SC1` [crystalline form of Cefathiamidine obtained from acetonitril], the “thermal cracking / decomposition temperature” value [3] is given as 145.4 °C.

For `CC(=O)OCC1=C(C(=O)O)N2C(=O)[C@@H](NC(=O)CSC(=NC(C)C)NC(C)C)[C@H]2SC1.N` [Example 1, (6R,7R)-3[(acetyloxy)methyl]-7-[α-(N,N′-diisopropyl-carbamimidoylsulfanyl)-acetylamino]-8-oxo-5-thia-1-aza-bicyclo[4,2,0]oct-2-ene-2-carboxylic acid ammonium salt], the “thermal stability (change on storage)” value [1] was “did not make any change”, the LD50 ([4]; ip, intraperitoneal injection) was 1300 ± 200 mg/kg and the LD50 ([4]; mice, intravenous injection) was 1100 ± 20 mg/kg. The reproductive toxicity [5] was “lower reproductive toxicity than that of any prior art”, the MIC90 (streptococcus pyogenes) was 0.48 µg/mL and the MIC90 (streptococcus pneumonia) was 0.24 µg/mL. The MIC90 (another three bacterias) was less than 7.8 µg/mL, the MIC90 (haemophilus influenza) was 1.8 µg/mL and the MIC90 (enterococcus) was 1.9 µg/mL. For the same compound, the “thermal decomposing temperature” value [2] was 172.2 °C.
